From publication PMC11057203, “Synergy between Winter Flounder antimicrobial peptides” (npj Antimicrobials and Resistance, 2023)
One block for each compound: values may come before it. Non-standard residues stand in square brackets, D forms with d. Residues, ends and D or L forms follow the SMILES beside them.

How the values were obtained:
[1] = tested on: P. aeruginosa RP73; format: cell-based, Pseudomonas aeruginosa
Experimental: (§1) Synergy was measured using standard microdilution Chequerboard assays under the same conditions as the MICs with RPMI140 + 5% FBS used alongside MHB[18]. Twofold dilution series of each peptide or antibiotic were prepared in separate 96 well plates and then combined into one before addition of bacteria. The growth/no growth interface was determined using the same definition as the MIC. The fractional inhibitory concentration was calculated from the most synergistic well on the plate for three independent repeats, and presented as above. MICs were determined on the same plates as the FICs to increase reproducibility.

[2] = tested on: EMRSA-15 NCTC 13616; format: cell-based, Staphylococcus aureus
Experimental: as §1

[3] = tested on: A. baumannii ATCC 17978; test: Galleria mellonella burn wound infection model; format: in vivo; settings: 5 mg/kg, topical 1 h after infection; n = 30 larvae; burn and infection untreated 46.0%
Experimental: Prior to use, G. mellonella were surface decontaminated by immersion in 50% ethanol for 20 s and allowed to dry. All assays were performed on three separate occasions using a group size of 10 larvae; the larvae were kept in separate petri dishes and in the dark in a static incubator at 37 °C for the duration of the experiment. Fresh agar plates of A. baumannii ATCC 17978 were prepared immediately prior to the experiment. Larvae were burnt using the flat head of a nail which was heated in a blue Bunsen burner flame until red hot, cooled for 15 s and superficially applied for 2 s to generate a 2 mm^2 burn. Larvae were infected with a single colony of A. baumannii ATCC 17978 applied directly to the burn site. Treatment was applied topically 1 h after infection in a volume of 5 µl or sterile phosphate buffered saline as a control. Survival was monitored over 96 h.

[4] = tested on: Pseudomonas aeruginosa NCTC 13437; format: cell-based; settings: Supplementary Table 1; Mueller-Hinton broth; unit inferred
Experimental: (§3) The antibacterial activity of the peptides was assessed through a modified two-fold broth microdilution assay with modal MICs generated from at least three biological replicate experiments[37]. The method broadly followed EUCAST methodology, with non-cation adjusted Mueller Hinton replacing cation-adjusted Mueller Hinton. Peptides and antibiotics were diluted in a two-fold dilution in media down a 96 well plate. Bacteria were then added, back-diluted from an overnight culture, at a starting concentration of 5 × 10^5 CFU/ml. Plates were incubated, static at 37 °C, for 20 h and the OD600 was determined using a Clariostar plate reader (BMG Labtech).

[5] = tested on: Pseudomonas aeruginosa PAO1; format: cell-based; settings: Supplementary Table 1; Mueller-Hinton broth; unit inferred
Experimental: as §3

[6] = tested on: Pseudomonas aeruginosa RP73; format: cell-based; settings: Supplementary Table 1; Mueller-Hinton broth; unit inferred
Experimental: as §3

[7] = tested on: Staphylococcus aureus 1199B; test: Broth microdilution MIC; format: cell-based; settings: Supplementary Table 1; Mueller-Hinton broth; unit not given
Experimental: (§2) The antibacterial activity of the peptides was assessed through a modified two-fold broth microdilution assay with modal MICs generated from at least three biological replicate experiments. The method broadly followed EUCAST methodology, with non-cation adjusted Mueller Hinton replacing cation-adjusted Mueller Hinton. Peptides and antibiotics were diluted in a two-fold dilution in media down a 96 well plate. Bacteria were then added, back-diluted from an overnight culture, at a starting concentration of 5 × 10^5 CFU/ml. Plates were incubated, static at 37 °C, for 20 h and the OD600 was determined using a Clariostar plate reader (BMG Labtech).

[8] = tested on: Staphylococcus aureus NCTC 6571; test: Broth microdilution MIC; format: cell-based; settings: Supplementary Table 1; Mueller-Hinton broth; unit not given
Experimental: as §2

[9] = tested on: Staphylococcus aureus USA300; test: Broth microdilution MIC; format: cell-based; settings: Supplementary Table 1; Mueller-Hinton broth; unit not given
Experimental: as §2

[10] = tested on: EMR Staphylococcus aureus-15 NCTC 13616; format: cell-based; settings: Supplementary Table 1; Mueller-Hinton broth; unit inferred
Experimental: as §3

[11] = tested on: Klebsiella pneumoniae NCTC 13368; format: cell-based; settings: Supplementary Table 1; Mueller-Hinton broth; unit inferred
Experimental: as §3

[12] = tested on: Klebsiella pneumoniae M6; format: cell-based; settings: Supplementary Table 1; Mueller-Hinton broth; unit inferred
Experimental: as §3

[13] = tested on: VS Enterococcus faecalis NCTC 775; format: cell-based; settings: Supplementary Table 1; Mueller-Hinton broth; unit not given
[14] = tested on: Escherichia coli NCTC 12923; format: cell-based; settings: Supplementary Table 1; Mueller-Hinton broth; unit inferred
Experimental: as §3

[15] = tested on: Acinetobacter baumannii ATCC 17978; format: cell-based; settings: Supplementary Table 1; Mueller-Hinton broth; unit inferred
Experimental: as §3

[16] = tested on: VR Enterococcus faecalis NCTC 12201; format: cell-based; settings: Supplementary Table 1; Mueller-Hinton broth; unit inferred
Experimental: as §3

[17] = tested on: P. aeruginosa 372261; test: Broth microdilution MIC; format: cell-based, Pseudomonas aeruginosa; settings: Supplementary Table 1; Mueller-Hinton broth; unit not given
Experimental: as §2

[18] = tested on: P. aeruginosa CAS2; test: Broth microdilution MIC; format: cell-based, Pseudomonas aeruginosa; settings: Supplementary Table 1; Mueller-Hinton broth; unit not given
Experimental: as §2

[19] = tested on: P. aeruginosa CAS4; test: Broth microdilution MIC; format: cell-based, Pseudomonas aeruginosa; settings: Supplementary Table 1; Mueller-Hinton broth; unit not given
Experimental: as §2

[20] = tested on: P. aeruginosa GH12; test: Broth microdilution MIC; format: cell-based, Pseudomonas aeruginosa; settings: Supplementary Table 1; Mueller-Hinton broth; unit not given
Experimental: as §2

[21] = tested on: P. aeruginosa CAS3; test: Broth microdilution MIC; format: cell-based, Pseudomonas aeruginosa; settings: Supplementary Table 1; Mueller-Hinton broth; unit not given
Experimental: as §2

[22] = tested on: Acinetobacter baumannii AYE; format: cell-based; settings: Supplementary Table 1; Mueller-Hinton broth; unit inferred
Experimental: as §3

[23] = tested on: VR Enterococcus faecium NCTC 12204; format: cell-based; settings: Supplementary Table 1; Mueller-Hinton broth; unit inferred
Experimental: as §3

[24] = tested on: Gram-negative bacteria; test: Broth microdilution MIC, Gram-negative panel; format: cell-based; settings: Mueller–Hinton broth; span of Table 2 Gram-negative isolates
Experimental: as §2

Pleurocidin MIC (analogue alone) [1]: 8-16 µg/ml | Pleurocidin MIC (analogue alone) [2]: 2 µg/ml
Structure (SMILES): CC(C)C[C@@H](NC(=O)[C@@H](Cc1ccc(O)cc1)NC(=O)[C@@H](Cc1c[nH]cn1)NC(=O)[C@H](NC(=O)[C@@H](CC(C)C)NC(=O)[C@@H](C)NC(=O)[C@@H](C)NC(=O)[C@@H](CCCNC(=N)N)NC(=O)CNC(=O)[C@H](NC(=O)[C@@H](Cc1c[nH]cn1)NC(=O)[C@@H](CCCNC(=N)N)NC(=O)CNC(=O)[C@H](NC(=O)[C@@H](Cc1c[nH]cn1)NC(=O)[C@@H](C)NC(=O)[C@@H](C)NC(=O)[C@@H](CCCNC(=N)N)NC(=O)[C@@H](CCCNC(=N)N)NC(=O)[C@@H](Cc1ccccc1)NC(=O)[C@@H](Cc1ccccc1)NC(=O)[C@@H](CO)NC(=O)CNC(=O)[C@@H](Cc1c[nH]c2ccccc12)NC(=O)CN)C(C)C)C(C)C)[C@H](C)O)C(N)=O [D-pleurocidin-KR] (H-G[dW]G[dS][dF][dF][dR][dR][dA][dA][dH][dV]G[dR][dH][dV]G[dR][dA][dA][dL][dT][dH][dY][dL]-NH2; N-terminus assumed)

D-WF1a MIC (alone) [1]: 512 µg/mL | D-WF1a MIC (alone) [2]: 512 µg/mL
Structure (SMILES): CC[C@@H](C)[C@@H](NC(=O)[C@@H](CCCNC(=N)N)NC(=O)[C@@H](CCCNC(=N)N)NC(=O)[C@@H](CC(C)C)NC(=O)[C@H](N)Cc1c[nH]c2ccccc12)C(=O)NCC(=O)N[C@H](CCCCN)C(=O)NCC(=O)N[C@@H](C(=O)N[C@H](CCCCN)C(=O)N[C@@H](C(=O)N[C@@H](C(=O)NCC(=O)NCC(=O)N[C@H](C)C(=O)N[C@H](C)C(=O)N[C@H](CC(C)C)C(=O)N[C@H](CC(=O)O)C(=O)N[C@H](Cc1c[nH]cn1)C(=O)N[C@H](CC(C)C)C(N)=O)[C@H](C)CC)[C@H](C)CC)C(C)C [D-WF1a] (H-[dW][dL][dR][dR][dI]G[dK]G[dV][dK][dI][dI]GG[dA][dA][dL][dD][dH][dL]-NH2; N-terminus assumed)

Structure (SMILES): CNC(C)C1CCC(N)C(OC2C(N)CC(N)C(OC3OCC(C)(O)C(NC)C3O)C2O)O1 (stereo not drawn) [Gentamicin]
Survival % @ 96 h [3]: 86.7%

Structure (SMILES): CC(C)C[C@@H](NC(=O)[C@@H](Cc1ccc(O)cc1)NC(=O)[C@@H](Cc1c[nH]cn1)NC(=O)[C@H](NC(=O)[C@@H](CC(C)C)NC(=O)[C@@H](C)NC(=O)[C@@H](C)NC(=O)[C@@H](CCCCN)NC(=O)CNC(=O)[C@H](NC(=O)[C@@H](Cc1c[nH]cn1)NC(=O)[C@@H](CCCCN)NC(=O)CNC(=O)[C@H](NC(=O)[C@@H](Cc1c[nH]cn1)NC(=O)[C@@H](C)NC(=O)[C@@H](C)NC(=O)[C@@H](CCCCN)NC(=O)[C@@H](CCCCN)NC(=O)[C@@H](Cc1ccccc1)NC(=O)[C@@H](Cc1ccccc1)NC(=O)[C@@H](CO)NC(=O)CNC(=O)[C@@H](Cc1c[nH]c2ccccc12)NC(=O)CN)C(C)C)C(C)C)[C@H](C)O)C(N)=O [D-pleurocidin] (H-G[dW]G[dS][dF][dF][dK][dK][dA][dA][dH][dV]G[dK][dH][dV]G[dK][dA][dA][dL][dT][dH][dY][dL]-NH2; N-terminus assumed)
Antimicrobial activity of D-enantiomers, Pseudomonas aeruginosa NCTC 13437 [4]: 8 µg/mL | Pleurocidin MIC (analogue alone) [1]: 8-16 µg/ml | Antimicrobial activity of D-enantiomers, Pseudomonas aeruginosa PAO1 [5]: 2 µg/mL | Antimicrobial activity of D-enantiomers, P. aeruginosa RP73 [6]: 16 µg/mL | Antimicrobial activity of D-enantiomers, Staphylococcus aureus 1199B [7]: 16 | Antimicrobial activity of D-enantiomers, Staphylococcus aureus NCTC 6571 [8]: 16 | Antimicrobial activity of D-enantiomers, Staphylococcus aureus USA300 [9]: 32 | Antimicrobial activity of D-enantiomers, EMR Staphylococcus aureus-15 NCTC 13616 [10]: 16 µg/mL | Pleurocidin MIC (analogue alone) [2]: 8-16 µg/ml | Antimicrobial activity of D-enantiomers, Klebsiella pneumoniae NCTC 13368 [11]: 2 µg/mL | Antimicrobial activity of D-enantiomers, Klebsiella pneumoniae M6 [12]: 2 µg/mL | Antimicrobial activity of D-enantiomers, VS Enterococcus faecalis NCTC 775 [13]: 16 | Antimicrobial activity of D-enantiomers, Escherichia coli NCTC 12923 [14]: 1 µg/mL | Antimicrobial activity of D-enantiomers, Acinetobacter baumannii ATCC 17978 [15]: 1 µg/mL | Antimicrobial activity of D-enantiomers, VR Enterococcus faecalis NCTC 12201 [16]: 64 µg/mL | Antimicrobial activity of D-enantiomers, P. aeruginosa 372261 [17]: 4 | Antimicrobial activity of D-enantiomers, P. aeruginosa CAS2 [18]: 8 | Antimicrobial activity of D-enantiomers, P. aeruginosa CAS4 [19]: 8 | Antimicrobial activity of D-enantiomers, P. aeruginosa GH12 [20]: 4 | Antimicrobial activity of D-enantiomers, P. aeruginosa CAS3 [21]: 4 | Antimicrobial activity of D-enantiomers, Acinetobacter baumannii AYE [22]: 2 µg/mL | Antimicrobial activity of D-enantiomers, VR Enterococcus faecium NCTC 12204 [23]: 16 µg/mL

Structure (SMILES): CC[C@H](C)[C@H](NC(=O)[C@H](CCCNC(=N)N)NC(=O)[C@H](CCCNC(=N)N)NC(=O)[C@H](CC(C)C)NC(=O)[C@H](Cc1c[nH]c2ccccc12)NC(=O)[C@H](CCCCN)NC(=O)[C@H](CCCNC(=N)N)NC(=O)[C@H](CCCCN)NC(=O)[C@H](CCCNC(=N)N)NC(=O)[C@H](CCCNC(=N)N)NC(=O)CN)C(=O)NCC(=O)N[C@@H](CCCCN)C(=O)NCC(=O)N[C@H](C(=O)N[C@@H](CCCCN)C(=O)N[C@H](C(=O)N[C@H](C(=O)NCC(=O)NCC(=O)N[C@@H](C)C(=O)N[C@@H](C)C(=O)N[C@@H](CC(C)C)C(=O)N[C@@H](CC(=O)O)C(=O)N[C@@H](Cc1c[nH]cn1)C(=O)N[C@@H](CC(C)C)C(N)=O)[C@@H](C)CC)[C@@H](C)CC)C(C)C [WF1a-1] (H-GRRKRKWLRRIGKGVKIIGGAALDHL-NH2)
MICs against Gram-negative isolates (range over panel) [24]: 0.25 to 8 µg/mL

Structure (SMILES): C[C@@H](O)[C@H]1C(=O)N2C(C(=O)O)=C(S[C@@H]3CN[C@H](C(=O)N(C)C)C3)[C@H](C)[C@H]12 [Meropenem]
Survival % @ 96 h [3]: 70.0%

Structure (SMILES): C[C@@H](O)[C@H]1C(=O)N2C(C(=O)O)=C(SCCN=CN)C[C@H]12 [Imipenem]
Survival % @ 96 h [3]: 70.0%
